# Assay results published in US20100099564A1, “HERBICIDE COMBINATION COMPRISING DIMETHOXYTRIAZINYL-SUBSTITUTED DIFLUOROMETHANESULFONYLANILIDES” (BAYER CROPSCIENCE AG, priority 2008, published 2010).
# Read-outs that look alike come from different tables or passages of the source.
# How the values were obtained:
# Assay type in all cases: in vivo
# [1] = system: Triticum aestivum (TRZAS); test: Post-emergence action, greenhouse pot test, visual scoring: TRZAS; details: Triticum aestivum, post-emergence, read-out: % activity found; for plant injury at 200 g/ha: B 200 g of ai/ha
# Description: (§1) Seeds or rhizome pieces of mono- and dicotyledonous harmful and useful plants were placed in peat pots (diameter 4 cm) filled with sandy loam and then covered with soil. The pots were kept in a greenhouse under optimum conditions. In addition, harmful plants encountered in paddy rice cultivation were cultivated in pots with a water level 2 cm above the soil surface.
# (§2) About three weeks after the start of the cultivation, the test plants were treated at the 2- to 3-leaf stage. The herbicides, formulated as powder or liquid concentrates, were, either alone or in the combinations according to the invention, sprayed in various dosages on to the green parts of the plants using an application rate of 600 l of water/ha (converted). For further cultivation of the plants, the pots were then again kept under optimum conditions in a greenhouse.
# (§3) The visual scoring of the herbicidal effects was carried out in intervals up to 21 days after the treatment. Scoring was carried out in percent in comparison to the untreated control plants. 0%=no herbicidal activity, 100%=complete herbicidal activity=complete kill.
# (§4) The percentages from the treatments with the herbicides alone (=individual application) and with the combinations according to the invention (=mixtures) were employed to calculate interactions using the method of Colby. When the observed efficacies of the mixtures exceed the formal sum of the values of the tests with individual applications, they also exceed the expected value according to Colby, which is calculated using the formula below (cf. S. R. Colby; in Weeds 15 (1967) pp. 20 to 22):
# (§5) Here: • A, B=activity of components A and B in percent at a dosage of a and b g of ai/ha (=gramm of active substance per hectare), respectively. • E=expected value in % at a dosage of a+b g of ai/ha.
# (§6) The combinations according to the invention of herbicides from group (A) with herbicides from group (B) were tested on a broad spectrum of important harmful plants (weed grasses, broad-leaved weeds/Cyperaceae) and useful plants: Triticum aestivum (TRZAS), Stellaria media (STEME), Lolium multiflorum (LOLMU), Veronica persica (VERPE), Alopecurus myosuroides (ALOMY), Matricaria inodora (MATIN), Brassica napus (BRSNW), Viola tricolor (VIOTR), Avena fatua (AVEFA), Amaranthus retroflexus (AMARE), Zea mays (ZEAMX), Pharbitis purpurea (PHBPU), Setaria viridis (SETVI), Fallopia (ex Polygonum) convolvulus (POLCO), Echinochloa crusgaffi (ECHCG), Abuthilon theophrasti (ABUTH), Cyperus esculentus (CYPES), Oryza sativa (ORYSA).
# (§7) Of particular interest are the results shown in the tables (Tab.) below, where the following key is used: • (1) EPPO code (former Bayer code) for the treated plant (see above) • (2) Time of scoring: DAT (days after treatment) • (3) Component A tested (identifying number) • (4) Component B tested (identifying number) • (5) Dosage component A [g of ai/ha] • (6) Dosage component B [g of ai/ha] • (7) % activity found • (8) E value (calculated according to Colby; see above) • (9) Comments: “SYNERGY” =synergistic interaction (E value<% activity found); “SAFENING”=safener action on useful plant (E value>% activity found)
# Stellaria media (STEME) = test: Post-emergence action, greenhouse pot test, visual scoring: STEME; details: 10 DAT
# Description: as §1, §2, §3, §4, §5, §6, §7
# [2] = system: Matricaria inodora (MATIN); test: Post-emergence action, greenhouse pot test, visual scoring: MATIN
# Description: as §1, §2, §3, §4, §5
# Viola tricolor (VIOTR) = test: Post-emergence action, greenhouse pot test, visual scoring: VIOTR; details: 10 DAT
# Description: as §1, §2, §3, §4, §5, §6, §7
# Avena fatua (AVEFA) = test: Post-emergence action, greenhouse pot test, visual scoring: AVEFA; details: 21 DAT
# Description: as §1, §2, §3, §4, §5, §6, §7
# Zea mays (ZEAMX) = test: Post-emergence action, greenhouse pot test, visual scoring: ZEAMX; details: Zea mays, post-emergence, read-out: % activity found; for plant injury at 200 g/ha: B 200 g of ai/ha; for plant injury at 1200 g/ha: B 1200 g of ai/ha
# Description: as §1, §2, §3, §4, §5, §6, §7
# [3] = system: Pharbitis purpurea (PHBPU); test: Post-emergence action, greenhouse pot test, visual scoring: PHBPU
# Description: as §1, §2, §3, §4, §5, §6, §7
# Setaria viridis (SETVI) = test: Post-emergence action, greenhouse pot test, visual scoring: SETVI; details: Setaria viridis, post-emergence, 504 h, 21 DAT, read-out: % activity found
# Description: as §1, §2, §3, §4, §5, §6, §7
# [4] = system: Fallopia (ex Polygonum) convolvulus (POLCO); test: Post-emergence action, greenhouse pot test, visual scoring: POLCO; details: 21 DAT
# Description: as §1, §2, §3, §4, §5, §6, §7
# [5] = system: Abuthilon theophrasti (ABUTH); test: Post-emergence action, greenhouse pot test, visual scoring: ABUTH; details: 21 DAT
# Description: as §1, §2, §3, §4, §5, §6, §7
# [6] = system: Cyperus esculentus (CYPES); test: Post-emergence action, greenhouse pot test, visual scoring: CYPES; details: 21 DAT
# Description: as §1, §2, §3, §4, §5
# Oryza sativa (ORYSA) = test: Post-emergence action, greenhouse pot test, visual scoring: ORYSA; details: Oryza sativa, post-emergence, read-out: % activity found
# Description: as §1, §2, §3, §4, §5, §6, §7
# [7] = system: Lolium multiflorum (LOLMU); test: Post-emergence action, greenhouse pot test, visual scoring: LOLMU; details: 10 DAT, B 400 g of ai/ha
# Description: as §1, §2, §3, §4, §5, §6, §7
# Veronica persica (VERPE) = test: Post-emergence action, greenhouse pot test, visual scoring: VERPE
# Description: as §1, §2, §3, §4, §5, §6, §7
# [8] = system: Alopecurus myosuroides (ALOMY); test: Post-emergence action, greenhouse pot test, visual scoring: ALOMY; details: Alopecurus myosuroides, post-emergence, read-out: % activity found; for pest or weed control at 400 g/ha: B 400 g of ai/ha
# Description: as §1, §2, §3, §4, §5
# [9] = system: Amaranthus retroflexus (AMARE); test: Post-emergence action, greenhouse pot test, visual scoring: AMARE; details: 10 DAT
# Description: as §1, §2, §3, §4, §5
# [10] = 504 h, 21 DAT, B 600 g of ai/ha
# [11] = 240 h, 10 DAT, B 400 g of ai/ha
smiles,measurement,setting,value
"CN(C(=O)COc1nc2ccccc2s1)c1ccccc1 [B3-4, 2-(2-benzothiazolyloxy)-N-methyl-N-phenylacetamide]",plant injury at 200 g/ha,"[1]; 240 h, 10 DAT",10%
same,plant injury at 200 g/ha,"[1]; 504 h, 21 DAT",0%
same,% activity found,Stellaria media (STEME); B 200 g of ai/ha,10%
same,% activity found,"[2]; 10 DAT, B 200 g of ai/ha",0%
same,% activity found,"[2]; 10 DAT, B 600 g of ai/ha",0%
same,% activity found,"[2]; 21 DAT, B 200 g of ai/ha",0%
same,% activity found,"[2]; 21 DAT, B 600 g of ai/ha",20%
same,% activity found,Viola tricolor (VIOTR); B 200 g of ai/ha,0%
same,% activity found,Viola tricolor (VIOTR); B 600 g of ai/ha,0%
same,% activity found,Avena fatua (AVEFA); B 200 g of ai/ha,0%
same,plant injury at 200 g/ha,"Zea mays (ZEAMX); 240 h, 10 DAT",0%
same,plant injury at 200 g/ha,"Zea mays (ZEAMX); 504 h, 21 DAT",0%
same,plant injury at 600 g/ha,Zea mays (ZEAMX); [10],10%
same,% activity found,"[3]; 21 DAT, B 200 g of ai/ha",0%
same,pest or weed control at 200 g/ha,Setaria viridis (SETVI); B 200 g of ai/ha,30%
same,% activity found,[4]; B 200 g of ai/ha,0%
same,% activity found,[4]; B 600 g of ai/ha,0%
same,% activity found,[5]; B 200 g of ai/ha,0%
same,% activity found,[5]; B 600 g of ai/ha,0%
same,% activity found,[6]; B 200 g of ai/ha,0%
same,% activity found,[6]; B 600 g of ai/ha,0%
same,plant injury at 600 g/ha,Oryza sativa (ORYSA); [10],20%
"CCCCOCN(C(=O)CCl)c1c(CC)cccc1CC [B4-3, N-(butoxymethyl)-2-chloro-N-(2,6-diethylphenyl)acetamide]",plant injury at 400 g/ha,[1]; [11],0%
same,% activity found,Stellaria media (STEME); B 400 g of ai/ha,0%
same,% activity found,[7],40%
same,% activity found,"Veronica persica (VERPE); 10 DAT, B 400 g of ai/ha",0%
same,% activity found,"Veronica persica (VERPE); 10 DAT, B 1200 g of ai/ha",0%
same,% activity found,"Veronica persica (VERPE); 21 DAT, B 1200 g of ai/ha",20%
same,pest or weed control at 400 g/ha,"[8]; 240 h, 10 DAT",20%
same,pest or weed control at 400 g/ha,"[8]; 504 h, 21 DAT",0%
same,pest or weed control at 1200 g/ha,"[8]; 504 h, 21 DAT, B 1200 g of ai/ha",50%
same,% activity found,"[2]; 10 DAT, B 400 g of ai/ha",0%
same,% activity found,"[2]; 10 DAT, B 1200 g of ai/ha",20%
same,% activity found,"[2]; 21 DAT, B 400 g of ai/ha",0%
same,% activity found,"[2]; 21 DAT, B 1200 g of ai/ha",40%
same,% activity found,Avena fatua (AVEFA); B 1200 g of ai/ha,50%
same,% activity found,[9]; B 400 g of ai/ha,0%
same,% activity found,[9]; B 1200 g of ai/ha,0%
same,plant injury at 1200 g/ha,"Zea mays (ZEAMX); 240 h, 10 DAT",20%
same,plant injury at 1200 g/ha,"Zea mays (ZEAMX); 504 h, 21 DAT",0%
same,% activity found,"[3]; 10 DAT, B 400 g of ai/ha",0%
same,% activity found,"[3]; 10 DAT, B 1200 g of ai/ha",0%
same,% activity found,"[3]; 21 DAT, B 400 g of ai/ha",0%
same,% activity found,"[3]; 21 DAT, B 1200 g of ai/ha",0%
same,pest or weed control at 400 g/ha,Setaria viridis (SETVI); B 400 g of ai/ha,0%
same,% activity found,[4]; B 400 g of ai/ha,0%
same,% activity found,[4]; B 1200 g of ai/ha,0%
same,% activity found,[5]; B 400 g of ai/ha,0%
same,plant injury at 400 g/ha,Oryza sativa (ORYSA); [11],0%
